Results reported in US20170348213A1, “Oral Care Composition” (Colgate-Palmolive Company, priority 2014, published 2017).

What was measured:
oral mucosal cells = assay: Cell irritating effect on oral mucosal cells (Janus Green B staining, optical microscope); type: cell-based; settings: aqueous solution
Protocol: Aqueous solutions of different concentrations of sodium […] (SLS) and sodium methyl cocoyl taurate (SMCT) were prepared. The solutions were used to challenge oral mucosal cells. Treated cells were stained with Janus Green B and morphological changes were observed using an optical microscope to determine whether or not the cells had become irritated or remained intact. Cells were identified as normal if the cells were in tact, the cell wall was smooth, the color of the cell core was clear/dark, and if organelles could be identified. Cells were identified as irritated if the cells could not be clearly defined with a blurring of the cell wall, if there was crimping of the cell, if the color of the cell core and plasma is lighter than observed for an intact cell, and if organelles could not be identified. […]

[1] = Antioxidant activity, LPO-CC kit (Kamiya Biomedical Company); type: biochemical; settings: agent at 1% in ethanol
Protocol: The antioxidant activity of rutin was tested using an LPO-CC kit (Kamiya Biomedical Company), and compared to that of vitamin E. (The agents were tested in an amount of 1% in ethanol). The lower the optical density, the better the antioxidant capacity. The higher the percentage cumeme hydroperoxide reduction, the better the antioxidant capacity. The antioxidant efficacy of the formulations was also tested using the methods described in Example 5. The results are illustrated in Table 9a and 9b.

| Substance | Cell irritating effects of aqueous surfactant solutions: Results (oral mucosal cells; 0.48 % active weight surfactant) | Cell irritating effects of aqueous surfactant solutions: Results (oral mucosal cells; 1.40 % active weight surfactant) | Cell irritating effects of aqueous surfactant solutions: Results (oral mucosal cells; 1.71 % active weight surfactant) | Cell irritating effects of aqueous surfactant solutions: Results (oral mucosal cells; 2.20 % active weight surfactant) | % reduction of cumeme hydroperoxide ([1]; higher = better antioxidant capacity) | Optical Density at 675 nm ([1]; lower optical density = better antioxidant capacity) |
| --- | --- | --- | --- | --- | --- | --- |
| sodium lauryl ether sulfate [SLS] | No cell irritation | Cells irritated | Cells irritated | Cells irritated |  |  |
| vitamin E |  |  |  |  | 50.4719% | 0.2204 |
